Measured values published in patent US5057493A, “Novel antibiotics R106” (priority 1988, dated 1991).
Starred links: 1 amine or outer side, 2 acyl side, 3 side chain; linkers in the order of their positions; H or OH if unused. Non-standard residues stand in square brackets, D forms with d. Residues, ends and D or L forms follow the SMILES beside them. ξ: configuration not given here. X2 = CN(C(C(=O)[*:2])C(O)c1ccccc1)[*:1]; ξNMeVal(3-OH) = CNC(C(=O)O)C(C)(C)O; NMeF = CN[CH](Cc1ccccc1)C(=O)O; X1 = CCC(C)C(O[*:1])C(=O)[*:2]; NMeV = CN[CH](C(=O)O)C(C)C; Hiv = CC(C)[CH](O)C(=O)O

Experiments:
[1] = 50% lethal dose (LD50) in mice; assay type: in vivo
Description: All of the antibiotics R106 show low toxicity. The results of 50% lethal dose (LD50) obtained when each of representative compounds of the present invention was given to mice intravenously, intraperitoneally and orally are shown in Table 7.

[2] = test system: Candida glabrata TIMM 1062; experiment: MIC by agar dilution method, casitone agar; assay type: cell-based; details: Table 5
Description: (§1) The minimum inhibitory concentration (MIC) of each antibiotic against various fungi was determined by the agar dilution method using casitone agar medium (2.0% glucose, 0.9% bacto-casitone, 1.0% yeast extract, 0.1% KH2 PO4, 0.1% Na2 HPO4, 1.0% sodium citrate, 2.0% agar: concentrations are all by w/v).
(§2) Each minimum growth inhibitory concentration was determined after culturing at 27° C. for 4 days.

[3] = test system: Cryptococcus neoformans TIMM 0354; experiment: MIC by agar dilution method, casitone agar; assay type: cell-based; details: Table 5
Description: as §1, §2

[4] = test system: Candida albicans TIMM 0171; experiment: MIC by agar dilution method, casitone agar; assay type: cell-based; details: Table 5
Description: (§3) The antibiotics R106 of the present invention are active against various fungi including pathogenic fungi. The minimum inhibitory concentration (MIC) of each antibiotic against various fungi was determined by the agar dilution method using casitone agar medium (2.0% glucose, 0.9% bacto-casitone, 1.0% yeast extract, 0.1% KH2 PO4, 0.1% Na2 HPO4, 1.0% sodium citrate, 2.0% agar: concentrations are all by w/v).

[5] = test system: Candida albicans TIMM 1768; experiment: MIC by agar dilution method, casitone agar; assay type: cell-based; details: Table 5
Description: as §3

[6] = test system: Candida albicans TIMM 0136; experiment: MIC by agar dilution method, casitone agar; assay type: cell-based; details: Table 5
Description: as §3

Candida kefyr TIMM 0301 = experiment: MIC by agar dilution method, casitone agar; assay type: cell-based; details: Table 5
Description: as §3

SMILES: CCC(C)C1NC(=O)C2CCCN2C(=O)C(Cc2ccccc2)N(C)C(=O)C(Cc2ccccc2)NC(=O)C(C(C)C)N(C)C(=O)C(C(C)C)OC(=O)C(C(C)(C)O)N(C)C(=O)C(CC(C)C)NC(=O)C(C(C)C)N(C)C1=O (stereo not drawn) [Compound 2] (cyclo([ξNMeVal(3-OH)][Hiv][NMeV]F[NMeF]PI[NMeV]L); configuration not given here)
- LD50 ([1]; i.p.): > 200 mg/kg
- LD50 ([1]; i.v.): > 100 mg/kg
- LD50 ([1]; p.o.): > 200 mg/kg
- minimum inhibitory concentration (MIC) [2]: 0.20
- minimum inhibitory concentration (MIC) [3]: 1.56
- minimum inhibitory concentration (MIC) [4]: 0.10
- minimum inhibitory concentration (MIC) [5]: 0.78
- minimum inhibitory concentration (MIC) [6]: 0.10
- minimum inhibitory concentration (MIC) (Candida kefyr TIMM 0301): 0.20

SMILES: CCC(C)C1NC(=O)C2CCCN2C(=O)C(C(O)c2ccccc2)N(C)C(=O)C(Cc2ccccc2)NC(=O)C(C(C)C)N(C)C(=O)C(C(C)CC)OC(=O)C(C(C)(C)O)N(C)C(=O)C(CC(C)C)NC(=O)C(C(C)C)N(C)C1=O (stereo not drawn) [Compound 5] (cyclo([X2]PI[NMeV]L[ξNMeVal(3-OH)][X1][NMeV]F); configuration not given here)
- LD50 ([1]; i.p.): > 200 mg/kg
- LD50 ([1]; i.v.): > 100 mg/kg
- LD50 ([1]; p.o.): > 200 mg/kg
- minimum inhibitory concentration (MIC) [2]: 0.20
- minimum inhibitory concentration (MIC) [3]: 3.12
- minimum inhibitory concentration (MIC) [4]: ≤ 0.05
- minimum inhibitory concentration (MIC) [5]: ≤ 0.05
- minimum inhibitory concentration (MIC) [6]: ≤ 0.05
- minimum inhibitory concentration (MIC) (Candida kefyr TIMM 0301): 0.20

SMILES: CCC(C)C1NC(=O)C2CCCN2C(=O)C(Cc2ccccc2)N(C)C(=O)C(Cc2ccccc2)NC(=O)C(C(C)C)N(C)C(=O)C(C(C)CC)OC(=O)C(C(C)C)N(C)C(=O)C(CC(C)C)NC(=O)C(C(C)C)N(C)C1=O (stereo not drawn) [Compound 7] (cyclo([X1][NMeV]F[NMeF]PI[NMeV]L[NMeV]); configuration not given here)
- LD50 ([1]; i.p.): > 200 mg/kg
- LD50 ([1]; i.v.): > 100 mg/kg
- LD50 ([1]; p.o.): > 200 mg/kg
- minimum inhibitory concentration (MIC) [2]: > 25
- minimum inhibitory concentration (MIC) [3]: > 25
- minimum inhibitory concentration (MIC) [4]: 1.56
- minimum inhibitory concentration (MIC) [5]: 3.12
- minimum inhibitory concentration (MIC) [6]: 3.12
- minimum inhibitory concentration (MIC) (Candida kefyr TIMM 0301): 25

SMILES: CCC(C)C1OC(=O)C(C(C)(C)O)N(C)C(=O)C(CC(C)C)NC(=O)C(C(C)C)N(C)C(=O)C(CC(C)C)NC(=O)C2CCCN2C(=O)C(Cc2ccccc2)N(C)C(=O)C(Cc2ccccc2)NC(=O)C(C(C)C)N(C)C1=O (stereo not drawn) [Compound 9] (cyclo([ξNMeVal(3-OH)][X1][NMeV]F[NMeF]PL[NMeV]L); configuration not given here)
- LD50 ([1]; i.p.): > 200 mg/kg
- LD50 ([1]; i.v.): > 100 mg/kg
- LD50 ([1]; p.o.): > 200 mg/kg
- minimum inhibitory concentration (MIC) [2]: 0.39
- minimum inhibitory concentration (MIC) [3]: 25
- minimum inhibitory concentration (MIC) [4]: ≤ 0.05
- minimum inhibitory concentration (MIC) [5]: 0.20
- minimum inhibitory concentration (MIC) [6]: ≤ 0.05
- minimum inhibitory concentration (MIC) (Candida kefyr TIMM 0301): 0.20
